Data on five molecules can be found in ChEMBL document CHEMBL1201862, “PubChem BioAssay data set” (2004).

Test [1] deals with T1, Hexokinase HKDC1 (Homo sapiens, UniProt Q2TB90).
T1 sequence (Q2TB90 whole entry): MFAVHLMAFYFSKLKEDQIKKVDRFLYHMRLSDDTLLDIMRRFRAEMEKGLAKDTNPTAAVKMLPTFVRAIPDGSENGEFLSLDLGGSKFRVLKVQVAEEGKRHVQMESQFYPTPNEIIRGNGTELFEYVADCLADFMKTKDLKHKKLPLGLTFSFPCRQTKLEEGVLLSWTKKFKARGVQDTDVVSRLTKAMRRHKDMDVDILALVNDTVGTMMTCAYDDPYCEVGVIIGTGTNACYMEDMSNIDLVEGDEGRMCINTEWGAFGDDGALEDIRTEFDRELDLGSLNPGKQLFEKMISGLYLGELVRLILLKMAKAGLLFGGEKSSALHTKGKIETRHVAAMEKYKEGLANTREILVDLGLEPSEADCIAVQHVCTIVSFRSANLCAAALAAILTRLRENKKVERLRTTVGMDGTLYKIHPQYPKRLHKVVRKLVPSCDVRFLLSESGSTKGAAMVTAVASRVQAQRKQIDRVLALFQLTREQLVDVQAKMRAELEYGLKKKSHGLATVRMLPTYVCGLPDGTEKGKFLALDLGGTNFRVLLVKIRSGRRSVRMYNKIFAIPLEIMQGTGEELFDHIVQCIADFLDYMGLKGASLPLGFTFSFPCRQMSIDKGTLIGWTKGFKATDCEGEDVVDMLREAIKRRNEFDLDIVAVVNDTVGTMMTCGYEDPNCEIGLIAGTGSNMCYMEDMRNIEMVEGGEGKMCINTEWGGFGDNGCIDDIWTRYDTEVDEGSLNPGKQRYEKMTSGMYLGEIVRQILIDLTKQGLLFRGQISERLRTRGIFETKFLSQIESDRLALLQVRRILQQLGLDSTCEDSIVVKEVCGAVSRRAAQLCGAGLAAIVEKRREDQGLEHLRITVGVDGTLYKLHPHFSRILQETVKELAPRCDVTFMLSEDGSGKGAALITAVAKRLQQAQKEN
Description: SAR analysis of small molecule inhibitors of hexokinase domain containing I (HKDC1). [Related pubchem assays (depositor defined):AID493160, AID493190]. It is filed as functional.

Test [2] in a line: BHK-21 cell cytotoxicity, cytotoxicity control for flavivirus guanylyltransferase probe project, secondary screen (AID 624078). It is filed as functional.
The target of test [3] is T2, Caspase-3 (Homo sapiens, UniProt P42574).
T2 sequence (P42574 whole entry): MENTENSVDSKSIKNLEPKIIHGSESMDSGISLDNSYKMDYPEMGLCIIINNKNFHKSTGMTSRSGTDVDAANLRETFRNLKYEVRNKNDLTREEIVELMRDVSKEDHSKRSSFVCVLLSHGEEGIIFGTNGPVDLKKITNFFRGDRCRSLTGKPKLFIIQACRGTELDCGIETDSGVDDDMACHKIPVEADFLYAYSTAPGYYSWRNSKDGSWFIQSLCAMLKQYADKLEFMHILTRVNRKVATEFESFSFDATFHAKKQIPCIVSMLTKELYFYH
The experiment in a line: caspase-3 inhibitors as off-family protease, SAR follow-up, selectivity assay for SENP protease inhibitor project, biochemical, luminescence, set 2 (AID 588599). It is filed as functional.

Test [4] can be described thus: growth suppression of PTEN-null colon cells, dose response, cell-based, HCT116 PTEN knockout (AID 1047).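 Also: HCT116 colon tumor cells with PTEN knocked out; cells exposed to compound for 60 hours before readout; potency for loss of cell viability measured by luminescence.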 It is filed as functional.
Test [5] concerns BJ. The experiment in a line: cytotoxicity toward BJ-TERT-LT-ST fibroblasts, dose response, cell-based, RAS-independent, luminescence (AID 1935).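 Also: BJ fibroblasts immortalized with TERT plus LT and ST oncogenes.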 It is filed as functional. The conditions noted are these: Homo sapiens.
Test [6] is described as follows: non-specific cell cytotoxicity, dose response, cytotoxicity control for PAX8 inhibitor project, plate reader, dry powder samples (AID 743021). It is filed as functional, cell-based.
Test [7] has as its target T3, Histone-lysine N-methyltransferase NSD2 (Homo sapiens, UniProt O96028).
T3 sequence (O96028 whole entry): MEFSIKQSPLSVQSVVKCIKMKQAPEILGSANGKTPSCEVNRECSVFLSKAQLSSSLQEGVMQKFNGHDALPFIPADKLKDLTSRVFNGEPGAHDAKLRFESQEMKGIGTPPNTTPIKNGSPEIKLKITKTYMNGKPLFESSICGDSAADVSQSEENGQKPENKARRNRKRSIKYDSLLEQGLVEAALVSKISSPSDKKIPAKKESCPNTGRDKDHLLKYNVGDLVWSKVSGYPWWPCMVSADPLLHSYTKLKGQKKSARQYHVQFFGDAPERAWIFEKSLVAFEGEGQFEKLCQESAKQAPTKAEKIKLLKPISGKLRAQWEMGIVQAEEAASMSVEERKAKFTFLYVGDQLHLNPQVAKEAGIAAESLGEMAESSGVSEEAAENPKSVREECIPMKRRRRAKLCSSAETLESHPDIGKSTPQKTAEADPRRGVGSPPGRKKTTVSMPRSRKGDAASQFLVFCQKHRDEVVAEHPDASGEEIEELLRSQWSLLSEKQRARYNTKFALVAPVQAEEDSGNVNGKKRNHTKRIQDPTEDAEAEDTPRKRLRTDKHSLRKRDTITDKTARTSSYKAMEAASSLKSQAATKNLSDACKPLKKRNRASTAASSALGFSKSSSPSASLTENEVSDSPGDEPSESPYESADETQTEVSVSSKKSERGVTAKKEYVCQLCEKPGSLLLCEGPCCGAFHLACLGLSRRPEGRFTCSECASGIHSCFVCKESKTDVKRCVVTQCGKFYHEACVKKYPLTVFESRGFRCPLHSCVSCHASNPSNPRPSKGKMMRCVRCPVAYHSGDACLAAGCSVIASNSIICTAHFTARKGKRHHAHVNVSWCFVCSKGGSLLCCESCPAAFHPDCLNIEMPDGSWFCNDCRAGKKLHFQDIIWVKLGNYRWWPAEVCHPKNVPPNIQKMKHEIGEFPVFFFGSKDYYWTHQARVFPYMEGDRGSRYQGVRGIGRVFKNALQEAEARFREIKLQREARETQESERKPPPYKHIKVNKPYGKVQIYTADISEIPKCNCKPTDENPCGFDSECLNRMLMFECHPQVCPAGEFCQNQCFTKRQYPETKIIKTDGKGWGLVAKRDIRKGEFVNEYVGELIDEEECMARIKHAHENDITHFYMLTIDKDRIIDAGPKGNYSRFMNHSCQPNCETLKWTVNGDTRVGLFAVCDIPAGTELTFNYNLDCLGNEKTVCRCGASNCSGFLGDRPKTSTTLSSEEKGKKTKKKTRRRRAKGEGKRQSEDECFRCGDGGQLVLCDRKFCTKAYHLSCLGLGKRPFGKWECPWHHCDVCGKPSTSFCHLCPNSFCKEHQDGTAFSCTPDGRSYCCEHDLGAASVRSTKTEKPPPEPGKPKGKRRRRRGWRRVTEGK
It is filed as biochemical.

The target of test [8] is T4, Sentrin-specific protease 8 (Homo sapiens, UniProt Q96LD8).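 Also: kinetic enzyme assay of SENP8 cleaving a Nedd8 protein substrate, dose-response confirmation of screening hits.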
T4 sequence (Q96LD8 whole entry): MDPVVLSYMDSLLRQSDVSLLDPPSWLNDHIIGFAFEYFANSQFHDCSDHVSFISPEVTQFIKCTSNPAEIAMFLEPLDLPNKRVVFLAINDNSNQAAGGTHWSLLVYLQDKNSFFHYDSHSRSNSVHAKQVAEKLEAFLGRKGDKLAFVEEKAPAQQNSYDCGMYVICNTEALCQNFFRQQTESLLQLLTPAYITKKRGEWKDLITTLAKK
It is filed as functional.

Activity calls are given as the source filed them.

In the case of `O=C(O)CSc1cc(NS(=O)(=O)c2ccc(Cl)cc2)c2ccccc2c1O`, the half-inhibitory concentration (IC50) in test [1] was 8.9 µM (active). In addition, the CC50 in test [2] was 7.78 µM (active).

Regarding `Oc1ccccc1/C=C/c1noc(-c2ccccc2O)n1`, in test [3], the IC50 was > 99 µM (inactive). As to `Cc1nn(-c2ccccc2)c(Cl)c1CN(C(=O)CCl)c1ccc(Cl)cc1`, the values for the EC50 in test [4] and in test [5] were 4.07 µM (active) and 3.36 µM (inconclusive), respectively. In test [6], the AC50 was 6.9 µM (active). As for `Cc1cccc(N=Nc2ccc(N(C)C)cc2)c1`, the AC50 in test [7] was 14.2 µM (active). With `COc1ccccc1N1C(=O)Cc2ccccc2C1=O`, the IC50 in test [8] is 2.04 µM (active).
